From patent US9689042B2, “Use of glycolytic pathways for inhibiting or measuring oncogenic signaling” (The Regents of the University of California, priority 2012, dated 2017)
Entries after “also recorded” stand apart in the source; their conditions may differ.

Key:
S1 cells = assay: 3D lrECM culture of non-malignant S1 cells: acinar morphology and growth; type: cell-based, human; conditions: 2DG 4 mM, OGM 4 ng/ml
Experimental: (§1) HMT-3522 cells were cultured on tissue culture plastic (2D) and in 3D lrECM gels with H14 medium, a 1:1 mix of DMEM/F12 (UCSF Cell Culture Facility) supplemented with 250 ng/ml insulin, 10 μg/ml transferrin, 2.6 ng/ml sodium selenite, 0.1 nM β-estradiol, 1.4 μM hydrocortisone and 5 μg/ml prolactin but no serum. S1 cells were additionally supplemented with 10 ng/ml EGF. MDA-MB-231 and HCC70 cells were cultured in DMEM and RPMI1640, respectively, and were supplemented with 10% fetal bovine serum (FBS).
(§2) For 3D lrECM cultures, S1 and T4-2 cells were seeded at 840,000 and 600,000 cells per cm3 respectively in lrECM gel (Cultrex), overlaid with H14 medium. MDA-MB-231 and HCC70 cells were seeded at 625,000 cell per cm3 and overlaid with H14 medium supplemented with 1% FBS. Cells were used for each assay after 10 days, unless otherwise indicated.
Pieces of lrECM gel containing cell colonies were suspended in approximately the same volume of phosphate buffered saline (PBS) and directly spread on glass slides. After brief air-drying, colonies were fixed with 3.7% paraformaldehyde (PFA) in PBS at room temperature (RT) for 10 min, washed with PBS containing 0.1 mM glycine, and permeabilized with 1:1 methanol/acetone at −20° C. for 10 min. […]

T4-2 cells [1] = conditions: T4-2 cells, 3D lrECM
Experimental: as §1, §2
Pieces of lrECM gel containing cell colonies were suspended in approximately the same volume of phosphate buffered saline (PBS) and directly spread on glass slides. After brief air-drying, colonies were fixed with 3.7% paraformaldehyde (PFA) in PBS at room temperature (RT) for 10 min, washed with PBS containing 0.1 mM glycine, and permeabilized with 1:1 methanol/acetone at −20° C. for 10 min. After blocking with IF buffer (0.2% Triton X-100, 0.1% BSA [radioimmunoassay grade], 0.05% Tween 20, 7.7 mM NaN3 in PBS) containing 10% goat serum and 1% goat F(ab′)2 anti-mouse immunoglobulin G (IgG; Caltag) at RT for 30 min, colonies were stained with anti-α6 integrin antibody (Chemicon International) at 4° C. overnight. Colonies were washed extensively with IF buffer, and stained with Alexa 568-labeled anti-rat IgG antibody at RT for 2 hr. Colonies were washed with IF buffer again, and nuclei were stained with DAPI at RT for 10 min. Slides were briefly washed with PBS and mounted with 50% glycerol in PBS.
To test whether increased glucose metabolism itself is required for oncogenic signaling events, we utilized 3D lrECM cultures of HMT-3522, a breast cancer progression series which includes non-malignant (S1) and malignant (T4-2) human breast epithelial cells from the same individual (Briand et al., 1987; Petersen et al., 1992; Rizki et al., 2008). Using these cells, we have described the involvement and reciprocity of multiple signaling pathways including EGFR, β1 integrin, PI3K-Akt and MEK-ERK in oncogenic events (Beliveau et al., 2010; Bissell et al., 2005). […] We thus used this “phenotypic reversion” of the cancer cells as an assay to examine how the signaling integration plan of the breast acini could involve glucose metabolism.

EGFR, ITGB1, GLUT3 mRNA = assay: Quantitative PCR of EGFR, ITGB1 and GLUT3 mRNA in T4-2 cells; type: cell-based, human; conditions: 3D lrECM, normalized to 18S ribosomal RNA
Experimental: First strand cDNA pools of S1, T4-2 and reverted T4-2 cells were obtained from total RNA of each sample by using SuperScript II (Invitrogen). For each sample, reverse transcription was carried out with random hexamer and with oligo dT primer following the manufacturer's instruction, and the two reactions were mixed in a ratio of 9:1. Expression levels of EGFR, ITGB1, GLUT3 and 18S ribosomal RNA (used as a control) were quantified in LightCycler system (Roche) using QuantiTect SYBR Green PCR Kits (QIAGEN) and the reverse transcription mixtures. Expression levels of EGFR, ITGB1, GLUT3 were normalized to that of 18S ribosomal RNA.

[2] = system: S1 cells infected with GLUT3-HA-encoding lentivirus; assay: 3D lrECM culture of S1 cells overexpressing GLUT3; type: cell-based, human; conditions: S1 cells over-expressing GLUT3-HA, 2DG 4 mM
Excerpt: HIV 5′ LTR sequence in pTRIPZ vector (Open Biosystems) was removed by FspI-BbvCI digestion to replace with sequence containing chimeric CMV promoter-HIV 5′ LTR. CMV promoter was amplified by PCR from pcDNA3 (Invitrogen), fused to sequence containing partial HIV 5′ LTR sequence. The resulting intermediate vector, pTRIPZ-OY (optimal yield) was digested with BbvCI and NotI, to remove sequence containing TRE-minCMV promoter, turboRFP, UbqC promoter and rtTA3 (described in the manual provided by the manufacturer). The sequences containing EF1α/HTLV hybrid promoter and multiple cloning sites were removed from pCDH-EF1-MCS-T2A-Puro vector (System Bioscience) by digestion with the same restriction enzymes, and ligated into the digested pTRIPZ-OY vector, resulting in pLETIP vector. GLUT3 cDNA fused to C-terminal HA tag was amplified from total cDNA of T4-2 cells by PCR. The primers used were as follows: 5′-[…]-3′ (SEQ ID NO: 9) and 5′-[…] TTAGCA-3′ (SEQ ID NO: 10). The amplified cDNA was digested with BamHI and XmaI, and ligated into the same sites of pBluescriptII SK(−) vector for validating the sequence. GLUT3-HA cDNA was then digested with BamHI and SmaI, and ligated into pLETIP vector digested with NotI, blunted with T4 polymerase and further digested with BamHI, resulting in pLETIP GLUT3-HA vector. […]

[3] = system: EGFR, β1 integrin, Akt, MEK, GLUT3, glycolytic enzymes in T4-2 cells; assay: Western blots of signaling intermediates, GLUT3 and metabolic enzymes in 3D lrECM cultures of T4-2 cells; type: cell-based, human; conditions: T4-2 cells
Experimental: Cell colonies were separated from lrECM gels by shaking in PBS containing 5 mM EDTA and the proteinase inhibitor cocktail set I (Calbiochem) on ice for 30 min. Cells were lysed in lysis buffer (1% NP-40, 1% deoxycholate, 2% SDS, 150 mM NaCl, 20 mM Tris-HCl [pH 7.4] plus 5 mM EDTA and protease inhibitor cocktail set I and phosphatase inhibitor cocktail set I [Calbiochem]) and sonicated three times for 30 sec each. Proteins were separated by SDS-PAGE, transferred to nitrocellulose membranes, and probed with antibodies against the following proteins: phosphorylated MEK, MEK, phosphorylated Akt, Akt, phosphorylated AMPK, AMPK, p70S6K, phosphorylated p70S6K, CHOP, EPAC1 (Cell Signaling), β1 integrin, EGFR, activated EGFR, HIF-1α, (Chemicon International), PFKP (Abgent), GAPDH, GLUT3 (GeneTex), LDHA, PDHE1α, DLAT, DLD, HIF-3α, Rap1, sAC, EPAC2, OGT, Lamin A/C (Santa Cruz Biotechnology), Aldolase (Polysciences), GFPT (ProteinTech Group), HIF-2α (Abcam), and HA-tag (Covance). After probing with HRP-conjugated secondary antibodies, blots were developed using SuperSignal West Femto chemiluminescence reagent (Pierce Biotechnology). Images were captured using Fluor Chem 8900 imager (Alpha Innotech).

T4-2 cells [4] = assay: Mitochondrial activity (MitoTracker oxidation) assay in 3D lrECM; type: cell-based, human
Experimental: Cells suspended in 200 μl lrECM were seeded in 12 well glass-bottom plates (14 mm diameter; MatTek Corporation). Gels were overlaid with 500 μl H14 media and cultured for 10 days before each assay unless otherwise described.
For mitochondrial activity, we slightly modified the method described previously (Morici et al., 2007). Briefly, cells were incubated with 2 μM MitoTracker® Orange CM-H2 TMRos (Invitrogen) for 1 hour and fixed with PFA as above. Cells were counterstained with Hoechst 33342 (Invitrogen), which is known also to bind to DNA stoichiometrically, then MitoTracker and Hoechst staining were measured by taking z-section images from top to bottom of the gels using confocal microscopy.
In each assay, one well, containing only lrECM, was made for background measurements. Glucose uptake measured by 2DG uptake, lactate production and MitoTracker staining were normalized using total DNA levels, and presented relative to that of control (either S1 or non-treated T4-2 cells).

[5] = same inhibitor concentrations as E1

O=CC[C@@H](O)[C@H](O)[C@H](O)CO [2DG, 2-deoxy-D-glucose]
acinar morphology, basal polarity and growth rate of non-malignant cells (S1 cells): altered neither the acinar morphology nor the growth rate
phenotypic reversion of the malignant phenotype (T4-2 cells [1]; 2DG 4 mM, IA 20 μM, OX 50 mM, Azs 20 μM, DON 20 μM, BADGP 5 mM, TM 10 ng/ml, OGM 4 ng/ml, Rapa 0.01-1.0 μM): induced phenotypic reversion; also recorded: do induce phenotypic reversion
basal polarity / organized acinar structures (T4-2 cells [1]; [5]): re-establishment of basally polarized acini
growth / proliferation (cell numbers at the colony mid-section, EdU incorporation) (T4-2 cells [1]; [5]): growth arrest
mRNA expression of EGFR, β1 integrin and GLUT3 (EGFR, ITGB1, GLUT3 mRNA): effectively suppressed
reversal of the disorganized phenotype caused by GLUT3 over-expression [2]: could be reversed
expression of ER stress marker CHOP ([3]; 3D cultures, 2DG 4 mM): unchanged
phosphorylation of AMPK or S6K ([3]; 3D cultures, 2DG 4 mM): did not affect
expression of GLUT3 and the glycolytic enzymes ([3]; 3D lrECM, Western blot): dramatic down-regulation
expression of PDC components ([3]; 3D lrECM, Western blot): elevated
levels and/or activities of EGFR, β1 integrin, Akt and MEK (oncogenic signaling) ([3]; 3D lrECM, Western blot): decrease
mitochondrial activity (oxidation) (T4-2 cells [4]): essentially unaffected
